Measurements as given in article PMC4489196, “Visualization of regional tau deposits using ^3H-THK5117 in Alzheimer brain tissue” (Acta Neuropathologica Communications, 2015).
Where “and” joins values, the source holds several entries; their conditions need not be identical. Equal entries are not always repeated. Where two headings read alike, the source gives them in different places.

Tests used:
[1] = molecular target: post-mortem AD temporal brain tissue homogenates (tau) (Homo sapiens, UniProt P10636); test: Saturation binding assay of ^3H-THK5117 in temporal cortex homogenates; settings: AD temporal lobe homogenates
Method: (§1) Human brain tissues from eight Alzheimer patients and eight controls were obtained from the Netherlands Brain Bank (demographic details in Table 1), and homogenized in PBS containing 0.1 % BSA and protease/phosphatase inhibitor.
(§2) Saturation binding assays were carried out with incubation of temporal cortex and hippocampus homogenates (0.1 mg tissue) with ^3H-THK5117 (0.04-270 nM) for 2 h at room temperature. Non-specific binding was determined with 1 μM THK5117. The binding reaction was terminated by filtering through glass fiber filters (pre-soaked for 3 h in 0.3 % polyethylenimine), and rinsing three times with cold binding buffer, and counted with a beta scintillation counter (Beckman Coulter LS6500). The results were analyzed with GraphPad Prism software (version 5.0f for Mac OS X, GraphPad Software, San Diego California USA). The equilibrium dissociation constant (Kd) and maximum number of binding sites (Bmax) were then determined.

[2] = molecular target: hippocampus homogenates of one AD patient (tau) (Homo sapiens, UniProt P10636); test: Saturation binding assay of ^3H-THK5117 in hippocampus homogenates; settings: one Alzheimer brain
Method: as §1, §2

[3] = test system: brain homogenates from patients with AD (tau); test: Regional binding studies with ^3H-THK5117 (3 nM) in brain homogenates; parameters: species or system Human; settings: AD cases
Method: as §1
Regional binding studies with ^3H-THK5117 were carried out on the brain homogenates from temporal cortex, frontal lobe, parietal lobe, caudate nucleus, hippocampus and cerebellum that were incubated with a single concentration of ^3H-THK5117 (3 nM). Non-specific binding was determined with 1 μM of THK5117. Comparisons between AD and control tissues were made using Mann–Whitney non-parametrical tests, with a threshold for significance of p < 0.05.

[4] = test system: frozen brain sections from left hemispheres of AD cases and control case (tau); test: ^3H-THK5117 autoradiography on large frozen brain hemisphere sections; assay type: binding, Human
From the text: Postmortem brain tissue for autoradiography studies was obtained from three patients with AD that all three had been clinically followed (by A.N.) at the Department of Geriatric Medicine, Karolinska University Hospital, Huddinge, Sweden. The left hemisphere of each brain was frozen in large block sections. The right hemispheres were fixed in formaldehyde, brain tissue was sampled according to the BrainNet Europe protocol and histopathological investigations were undertaken (by I.N.) to confirm AD pathology (see Additional file 1).
Frozen brain sections ([…]) from the left hemispheres of the three AD cases and the healthy control case were cut with a cryostat at −20 °C and thaw-mounted on chrome alum gelatin-subbed slides following a previously described protocol.
For each case, frozen sections were dried, pre-incubated for 10 min with PBS + 0.1%BSA, and were then incubated for one hour with 4 nM ^3H-THK5117. The non-specific binding assay was performed on adjacent sections in the presence of 10 μM THK5117. After incubation, sections were washed 3 times for 5 min with cold incubation buffer, dipped into cold distilled water, and allowed to dry for at least 24 h. A Fujifilm BAS-2500 phosphor imaging plate was then exposed to the section, along with a tritium standard, for three days (Larodan Fine Chemical AB, Malmö, Sweden) before being scanned by a phosphoimager Fujifilm BAS-2500.
Binding of the tracer was quantitatively assessed using MultiGauge Fujifilm software (V3.0). Two independent raters manually segmented different regions of interest, as defined by Duvernoy in “The Human Hippocampus” [19], resulting in regional mean uptake values for each segment. Inter-rater agreement was assessed for all uptake values using a Bland-Altman plot, with limits of agreement set to 95 %. When agreement was satisfactory, regional uptake values from both raters were averaged for subsequent analyses.

[5] = test system: tau (AT8) in paraffin sections of anterior and posterior hippocampus; test: ^3H-THK5117 autoradiography versus AT8 immunostaining on paraffin hippocampus sections; assay type: binding, Human; settings: adjacent paraffin sections, AD case one
From the text: Routine pathology with AT8 has been performed on anterior and posterior hippocampus paraffin sections from the right hemisphere of the three AD cases. Autoradiographies with ^3H-THK5117 on adjacent sections have been performed after deparafinization following the same protocol as cited above.

[6] = molecular target: ^3H-THK5117 binding sites in AD temporal cortex homogenates (tau) (Homo sapiens, UniProt P10636); test: Competition binding against ^3H-THK5117 (3 nM) in temporal cortex homogenates; settings: for Ki: AD temporal cortices
Method: as §1
(§3) The specificity and selectivity of ^3H-THK5117 binding was determined by incubating homogenates (0.1 mg tissue) from Alzheimer’s patients’ temporal cortex and hippocampus with ^3H-THK5117 (3 nM), in the presence of THK5117 (10^−5 -10^−13 M), FDDNP (10^−6 -10^−14 M) or BTA-1 (10^−5 -10^−13 M). The results were analyzed with GraphPad Prism software, and the resulting inhibitory constants (Ki) were determined.

[7] = test system: ^3H-PIB binding sites (amyloid); test: Competition between ^3H-PIB and unlabeled THK5117; parameters: species or system Human
[8] = molecular target: neurofibrillary tangles (Homo sapiens, UniProt P10636); test: THK5117 autofluorescence staining with adjacent AT8 immunostaining; assay type: binding; settings: paraffin hippocampus section of another AD case; confirmed with AT8 on adjacent section
From the text: A paraffin section from hippocampus of a patient with confirmed AD (at death, Braak VI, from the Netherlands brain bank) were quenched and stained with THK5117 following the procedure used by Okamura and colleagues for autofluorescence studies. An adjacent section was labeled with AT8 anti-tau and assessed using the EnVision + System HRP (DAB) (Dako Denmark) detection method.

[9] = test system: ^3H-THK5117 binding sites in hippocampus homogenates of one AD case (tau); test: Competition binding THK5117 against ^3H-THK5117 (3 nM) in hippocampus homogenates; parameters: species or system Human
Method: as §1, §3
A. Saturation binding curve and B. Scatchard plot of ^3H-THK5117 (0.04-270nM) for hippocampus homogenates of one AD patient. The plain regression line was determined by GraphPad Prism software and corresponds to the low affinity site. The dotted regression line was determined manually and corresponds to the high affinity site. Corresponding Kd and Bmax values are mentioned below the curve. C. Competition binding curve between THK5117 (10^-13-10^-5M) and ^3H-THK5117 (3nM) for hippocampus homogenates of one AD case. […] Ki Sup Hi = Ki for super high binding site; Ki Hi = Ki for high binding site; Ki Lo = Ki for low binding site.

Sequence of hippocampus homogenates of one AD patient (tau) (P10636 623-695 limits assumed): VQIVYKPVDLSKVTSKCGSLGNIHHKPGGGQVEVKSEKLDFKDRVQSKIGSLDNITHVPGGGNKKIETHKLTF
Sequence of post-mortem AD temporal brain tissue homogenates (tau) (P10636 623-758 limits assumed): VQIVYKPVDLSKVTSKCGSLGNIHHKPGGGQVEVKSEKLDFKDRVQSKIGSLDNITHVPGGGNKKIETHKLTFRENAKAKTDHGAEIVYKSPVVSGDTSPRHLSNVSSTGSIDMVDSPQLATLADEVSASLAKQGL
Sequence of ^3H-THK5117 binding sites in AD temporal cortex homogenates (tau) (P10636 623-708 limits assumed): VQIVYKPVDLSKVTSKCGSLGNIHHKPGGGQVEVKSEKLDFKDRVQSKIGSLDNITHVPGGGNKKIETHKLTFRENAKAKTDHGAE
Sequence of neurofibrillary tangles (P10636 623-758 limits assumed): as the sequence (P10636 623-758 limits assumed) above

## [3H]CNc1ccc(-c2ccc3cc(OCC(O)CF)ccc3n2)cc1 (stereo not shown) [^3H-THK5117, 1-Fluoro-3-((2-(4-([^3H]methylamino)phenyl)quinolin-6-yl)oxy)propan-2-ol]
[1]; high affinity site, determined manually from Scatchard plot
  Bmax1: 250 fmol/mg
[1]; low affinity site (GraphPad Prism fit)
  Bmax2: 1416 fmol/mg
[2]; high affinity site
  Bmax, first binding site: 250 fmol/mg
[2]; low affinity site
  Bmax, second binding site: 1226 fmol/mg
[3]; caudate nucleus homogenates
  Regional binding of ^3H-THK5117: 198 ± 30 fmol/mg
[3]; cerebellum homogenates
  Regional binding of ^3H-THK5117: very low
[3]; hippocampus homogenates
  Regional binding of ^3H-THK5117: 198 ± 67 fmol/mg
[3]; parietal lobe homogenates
  Regional binding of ^3H-THK5117: 105 ± 46 fmol/mg
[3]; temporal lobe homogenates
  Regional binding of ^3H-THK5117: 110 ± 47 fmol/mg
[4]; Amygdala, AD Case 1
  ^3H-THK5117 specific binding: 507 fmol/mg
[4]; Cingulate gyrus, AD Case 1
  ^3H-THK5117 specific binding: 292 fmol/mg
[4]; Cingulate gyrus, AD Case 2
  ^3H-THK5117 specific binding: 120 fmol/mg
[4]; Cingulate gyrus, AD Case 3
  ^3H-THK5117 specific binding: 110 fmol/mg
[4]; Entorhinal cortex, AD Case 1
  ^3H-THK5117 specific binding: 713 fmol/mg
[4]; Entorhinal cortex, AD Case 2
  ^3H-THK5117 specific binding: 126 fmol/mg
[4]; Entorhinal cortex, AD Case 3
  ^3H-THK5117 specific binding: 53 fmol/mg
[4]; Fusiform gyrus, AD Case 1
  ^3H-THK5117 specific binding: 585 fmol/mg
[4]; Fusiform gyrus, AD Case 2
  ^3H-THK5117 specific binding: 189 fmol/mg
[4]; Fusiform gyrus, AD Case 3
  ^3H-THK5117 specific binding: 52 fmol/mg
[4]; Hippocampus, AD Case 1
  ^3H-THK5117 specific binding: 693 fmol/mg
[4]; Hippocampus, AD Case 2
  ^3H-THK5117 specific binding: 171 fmol/mg
[4]; Hippocampus, AD Case 3
  ^3H-THK5117 specific binding: 112 fmol/mg
[4]; Inferior temporal gyrus, AD Case 1
  ^3H-THK5117 specific binding: 764 fmol/mg
[4]; Inferior temporal gyrus, AD Case 2
  ^3H-THK5117 specific binding: 125 fmol/mg
[4]; Inferior temporal gyrus, AD Case 3
  ^3H-THK5117 specific binding: 59 fmol/mg
[4]; Insular cortex, AD Case 1
  ^3H-THK5117 specific binding: 423 fmol/mg
[4]; Insular cortex, AD Case 2
  ^3H-THK5117 specific binding: 68 fmol/mg
[4]; Insular cortex, AD Case 3
  ^3H-THK5117 specific binding: 50 fmol/mg
[4]; Middle frontal gyrus, AD Case 1
  ^3H-THK5117 specific binding: 276 fmol/mg
[4]; Middle frontal gyrus, AD Case 2
  ^3H-THK5117 specific binding: 55 fmol/mg
[4]; Middle frontal gyrus, AD Case 3
  ^3H-THK5117 specific binding: 56 fmol/mg
[4]; Middle temporal gyrus, AD Case 1
  ^3H-THK5117 specific binding: 495 fmol/mg
[4]; Middle temporal gyrus, AD Case 2
  ^3H-THK5117 specific binding: 140 fmol/mg
[4]; Middle temporal gyrus, AD Case 3
  ^3H-THK5117 specific binding: 48 fmol/mg
[4]; Postcentral gyrus, AD Case 1
  ^3H-THK5117 specific binding: 312 fmol/mg
[4]; Postcentral gyrus, AD Case 2
  ^3H-THK5117 specific binding: 77 fmol/mg
[4]; Postcentral gyrus, AD Case 3
  ^3H-THK5117 specific binding: 75 fmol/mg
[4]; Precentral gyrus, AD Case 1
  ^3H-THK5117 specific binding: 310 fmol/mg
[4]; Precentral gyrus, AD Case 2
  ^3H-THK5117 specific binding: 32 fmol/mg
[4]; Precentral gyrus, AD Case 3
  ^3H-THK5117 specific binding: 102 fmol/mg
[4]; Putamen, AD Case 1
  ^3H-THK5117 specific binding: 242 fmol/mg
[4]; Superior frontal gyrus, AD Case 1
  ^3H-THK5117 specific binding: 344 fmol/mg
[4]; Superior frontal gyrus, AD Case 2
  ^3H-THK5117 specific binding: 57 fmol/mg
[4]; Superior frontal gyrus, AD Case 3
  ^3H-THK5117 specific binding: 114 fmol/mg
[4]; Superior temporal gyrus, AD Case 1
  ^3H-THK5117 specific binding: 363 fmol/mg
[4]; Superior temporal gyrus, AD Case 2
  ^3H-THK5117 specific binding: 114 fmol/mg
[4]; Superior temporal gyrus, AD Case 3
  ^3H-THK5117 specific binding: 53 fmol/mg
[4]; Thalamus, AD Case 1
  ^3H-THK5117 specific binding: 349 fmol/mg
[4]; control case compared to the three AD cases, 4 nM
  Autoradiography binding in control case: Low and regional binding
[5]
  Autoradiography binding pattern versus AT8 immunostaining: identical binding pattern

## CNc1ccc(-c2nc3ccccc3s2)cc1 [BTA-1, 2-(4-methylaminophenyl)benzothiazole, reference compound]
[6]; temporal cortex homogenates of four AD cases, ^3H-THK5117 3 nM
  Competition with ^3H-THK5117: No competition

## CNc1ccc(-c2ccc3cc(OCC(O)CF)ccc3n2)cc1 (stereo not shown) [^3H-THK5117, 1-Fluoro-3-((2-(4-([^3H]methylamino)phenyl)quinolin-6-yl)oxy)propan-2-ol]
[1]; high affinity site, determined manually from Scatchard plot, averaged from seven experiments, read-out: Kd1
  Kd: 2.2 nM
[1]; low affinity site (GraphPad Prism fit), read-out: Kd2
  Kd: 24 nM and 23.6 nM
[2]; high affinity site, read-out: Kd, first binding site
  Kd: 3.1 nM
[2]; low affinity site, read-out: Kd, second binding site
  Kd: 34 nM

## CNc1ccc(-c2ccc3cc(OCC(O)CF)ccc3n2)cc1 (stereo not shown) [THK5117]
[6]; ^3H-THK5117 3 nM, averaged from ten experiments, read-out: Ki2
  Ki: 16 nM
[6]; ^3H-THK5117 3 nM, averaged from ten experiments, read-out: Ki3
  Ki: 750 nM
[6]; potential third site, model constraint >100 for start of curve, ten experiments, read-out: Ki1
  Ki: 0.001 nM
[7]
  Competition between ^3H-PIB and unlabeled THK5117: No competition
[8]
  Autofluorescence staining: THK5117 binding on the neurofibrillary tangles
[9]
  Number of binding sites in competition binding curve: two different binding sites
